Marks after values point to notes of the source that are not given here.
What was measured:
[1] = target: T1, p38 MAPKα isoform (MAPK14: Invitrogen) (Homo sapiens, UniProt Q16539); assay: p38 MAPKα enzyme inhibition assay (FRET, Z-LYTE, via MAPKAP-K2 activation); format: biochemical; conditions: 2 hr pre-incubation, ATP 10.0 μM; read-out: Enzyme Inhibition IC50 p38α
T1 construct: purchased Invitrogen
Protocol: (§3) The enzyme inhibitory activities of compounds disclosed herein were determined by fluorescence resonance energy transfer (FRET) using synthetic peptides labelled with both donor and acceptor fluorophores (Z-LYTE, Invitrogen Ltd., Paisley, UK). Recombinant, phosphorylated p38 MAPKγ (MAPK12:Invitrogen) was diluted in HEPES buffer, mixed with the test compound at the desired final concentrations and incubated for 2 hr at RT. The FRET peptide (2 μM) and ATP (100 μM) were added to the enzyme/compound mixture and incubated for 1 hr. Development reagent (protease) was added for 1 hr prior to detection in a fluorescence microplate reader (Varioskan® Flash, ThermoFisher Scientific). The site-specific protease cleaves non-phosphorylated peptide only and eliminates the FRET signal. Phosphorylation levels of each reaction were calculated using the ratio of coumarin emission (donor) over fluorescein emission (acceptor) for which high ratios indicate high phosphorylation and low ratios indicate low phosphorylation levels.
For the p38 MAPKα isoform (MAPK14: Invitrogen), enzyme activity was evaluated indirectly by determining the level of activation/phosphorylation of the down-stream molecule, MAPKAP-K2. The p38 MAPKα protein was mixed with the test compound for 2 hr at RT. […] Development reagent was then added and the mixture incubated for 1 hr before detection by fluorescence completed the assay protocol.

[2] = target: T2, Recombinant, phosphorylated p38 MAPKγ (MAPK12:Invitrogen) (Homo sapiens, UniProt P53778); assay: p38 MAPKγ enzyme inhibition assay (FRET, Z-LYTE); format: biochemical; conditions: 2 hr pre-incubation, ATP 100 μM; read-out: Enzyme Inhibition IC50 p38γ
T2 construct: purchased Invitrogen
T2 sequence (P53778 1-367): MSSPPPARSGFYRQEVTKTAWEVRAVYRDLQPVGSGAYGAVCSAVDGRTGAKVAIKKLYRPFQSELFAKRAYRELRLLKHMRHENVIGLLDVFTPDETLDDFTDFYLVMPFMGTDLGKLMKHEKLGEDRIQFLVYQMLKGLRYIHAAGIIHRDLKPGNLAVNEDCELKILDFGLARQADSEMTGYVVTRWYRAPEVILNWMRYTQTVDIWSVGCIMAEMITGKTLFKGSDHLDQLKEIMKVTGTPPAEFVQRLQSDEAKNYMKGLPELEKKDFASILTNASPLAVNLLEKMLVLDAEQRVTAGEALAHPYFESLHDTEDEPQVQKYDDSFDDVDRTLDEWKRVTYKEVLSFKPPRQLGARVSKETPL
Protocol: as §3

[3] = test system: Differentiated U937 cells; assay: MTT assay: cell viability on exposure to test compounds; format: cell-based, human; conditions: percentage loss of cell viability vs vehicle; for MTT Assay (Viability) 4 h d-U937: 5% FCS; for MTT Assay (Viability) 24 h d-U937: 10% FCS
Protocol: MTT Assay: Determination of Cell Viability on Exposure to Test Compounds
Differentiated U937 cells were pre-incubated with each test compound under two protocols: the first for 4 hr in 5% FCS and the second in 10% FCS for 24 h. The supernatant was replaced with 200 μL of new media and 10 μL of MTT stock solution (5 mg/mL) was added to each well. After incubation for 1 hr the media were removed, 200 μL of DMSO was added to each well and the plates were shaken lightly for 1 hr prior to reading the absorbance at 550 nm. The percentage loss of cell viability was calculated for each well relative to vehicle (0.5% DMSO) treatment. Consequently an apparent increase in cell viability for drug treatment relative to vehicle is tabulated as a negative percentage.

[4] = test system: Poly I:C-induced ICAM-1 expression in BEAS2B cells; assay: Poly I:C-induced ICAM-1 induction in BEAS2B cells; format: cell-based; conditions: Homo sapiens, BEAS-2B, poly I:C 1 μg/mL, 18 hr, read-out: PolyI:C/ICAM1 IC50 BEAS2B
Protocol: Cellular Potency as Determined by Poly I:C-Induced ICAM-1 Induction in BEAS2B Cells
Poly I:C (1 μg/mL) (Invivogen Ltd., San Diego, Calif.) was transfected into BEAS2B cells (human bronchial epithelial cells, ATCC) with Oligofectamine (Invitrogen, Carlsbad, Calif.). Cells were pre-incubated with final concentrations of test compounds for 2 hr and the level of ICAM1 expression on the cell surface was determined by cell-based ELISA. At a time point 18 hr after poly I:C transfection, cells were fixed with 4% formaldehyde in PBS and then endogenous peroxidase was quenched by the addition of 0.1% sodium azide and 1% hydrogen peroxide. Cells were washed with wash-buffer (0.1% Tween in PBS: PBS-Tween). and after blocking the wells with 5% milk in PBS-Tween for 1 hr, the cells were incubated with anti-human ICAM-1 antibody (Cell Signaling Technology, Danvers, Mass.) in 1% BSA PBS overnight at 4° C. The cells were washed with PBS-Tween and incubated with the secondary antibody (HRP-conjugated anti-rabbit IgG, Dako Ltd., Glostrup, Denmark). The ICAM-1 signal was detected by adding substrate and reading the absorbance at 450 nm against a reference wavelength of 655 nm using a spectrophotometer. The cells were then washed with PBS-Tween and total cell numbers in each well were determined by reading absorbance at 595 nm after Crystal Violet staining and elution by 1% SDS solution. The measured OD 450-655 readings were corrected for cell number by dividing with the OD595 reading in each well. The inhibition of ICAM-1 expression was calculated at each concentration of test compound by comparison with vehicle control. The 50% inhibitory concentration (IC50) was determined from the resultant concentration-response curve.

[5] = test system: LPS-induced TNFα release in THP-1 cells; assay: LPS-induced TNFα release in THP-1 cells; format: cell-based; conditions: Homo sapiens, 3 μg/mL LPS, 4 hr
Protocol: Cellular Potency as Determined by LPS-Induced TNFα Release in THP-1 Cells
THP-1 cells, a human monocytic cell line, were stimulated with 3 μg/mL of LPS (from E. Coli; 0111:B4, Sigma) for 4 hr and the supernatant collected for determination of the TNFα concentration by sandwich ELISA (Duo-set, R&D systems). The inhibition of TNFα production was calculated at each concentration by comparison with vehicle control. The 50% inhibitory concentration (IC50) was determined from the resultant concentration-response curve.

[6] = test system: LPS-induced IL-8 release in d-U937 cells; assay: LPS-induced IL-8 release in d-U937 cells; format: cell-based; conditions: Homo sapiens, dU937, 0.1 μg/mL LPS, 4 hr
Protocol: (§1) Cellular Potency as Determined by LPS-Induced TNFα/IL-8 Release in d-U937Cells
(§2) U937 cells, a human monocytic cell line, were differentiated to macrophage-type cells by incubation with phorbol myristate acetate (PMA; 100 ng/mL) for 48 to 72 hr. Cells were pre-incubated with final concentrations of test compound for 2 hr and were then stimulated with 0.1 μg/mL of LPS (from E. Coli: O111:B4, Sigma) for 4 hr. The supernatant was collected for determination of TNFα and IL-8 concentrations by sandwich ELISA (Duo-set, R&D systems). […] The relative 50% effective concentration (REC50) was determined from the resultant concentration-response curve. The inhibition of IL-8 production was calculated at each concentration of test compound by comparison with vehicle control. The 50% inhibitory concentration (IC50) was determined from the resultant concentration-response curve.

[7] = test system: LPS-induced TNFα release in d-U937 cells; assay: LPS-induced TNFα release in d-U937 cells; format: cell-based; conditions: Homo sapiens, dU937, 4 h; read-out: LPS/TNFα REC50 d-U937
Protocol: as §1, §2

T1 sequence (Q16539 whole entry, canonical isoform): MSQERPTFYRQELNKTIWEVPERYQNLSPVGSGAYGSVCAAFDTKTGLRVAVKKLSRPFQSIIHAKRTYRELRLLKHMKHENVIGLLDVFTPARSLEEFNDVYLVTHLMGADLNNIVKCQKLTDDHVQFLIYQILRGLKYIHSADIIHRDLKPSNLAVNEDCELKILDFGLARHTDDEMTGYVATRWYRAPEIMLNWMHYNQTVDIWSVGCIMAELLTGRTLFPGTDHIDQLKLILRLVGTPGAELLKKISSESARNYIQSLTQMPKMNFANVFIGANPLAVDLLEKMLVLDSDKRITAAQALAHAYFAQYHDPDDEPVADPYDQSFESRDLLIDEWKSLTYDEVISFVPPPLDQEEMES

SMILES | IC50 [1] [nM] | IC50 [2] [nM] | MTT Assay (Viability) 4 h d-U937 ([3]; 1 μg/mL) [%] | MTT Assay (Viability) 24 h d-U937 ([3]; 1 μg/mL) [%] | IC50 [4] [nM] | IC50 [5] [nM] | IC50 [6] [nM] | EC50 [7] [nM] | MTT Assay (Viability) 4 h d-U937 ([3]; 10 μg/mL) | MTT Assay (Viability) 24 h d-U937 ([3]; 10 μg/mL)
COCC(=O)Nc1cc(Oc2ccc(NC(=O)Nc3cc(C(C)(C)C)nn3-c3ccc(O)nc3)c3ccccc23)ccn1.Cl [Example 17, N-(4-(4-(3-(3-tert-Butyl-1-(6-hydroxypyridin-3-yl)-1H-pyrazol-5-yl)ureido)naphthalen-1-yloxy)pyridin-2-yl)-2-methoxyacetamide] | 14.3 | 76.3 | −6.1 | −7.6 | 25.3 | 2 | 24.5 | 1.4 | – | –
COCC(=O)Nc1cc(Oc2ccc(NC(=O)Nc3cc(C(C)(C)C)nn3-c3cc(C)cs3)c3ccccc23)ccn1 [Example 18, N-(4-(4-(3-(3-tert-Butyl-1-(4-methylthiophen-2-yl)-1H-pyrazol-5-yl)ureido)naphthalen-1-yloxy)pyridin-2-yl)-2-methoxyacetamide] | 8.8 | 95.5 | 8.2 | −2.9 | 3.7 | 1.2 | 40 | 0.7 | – | –
COCC(=O)Nc1cc(Oc2ccc(NC(=O)Nc3cc(-c4ccccc4)nn3-c3ccccc3)c3ccccc23)ccn1 [Example 19, N-(4-((4-(3-(1,3-Diphenyl-1H-pyrazol-5-yl)ureido)naphthalen-1-yl)oxy)pyridin-2-yl)-2-methoxyacetamide] | 0.4 | 261 | −1.7 | −11.7 | 369 | 1.8 | 24.5 | 8.1 | – | –
COCC(=O)Nc1cc(Oc2ccc(NC(=O)Nc3cc(C4(C)CCOCC4)nn3-c3ccc(C)cc3)c3ccccc23)ccn1 [Example 20, 2-Methoxy-N-(4-(4-(3-(3-(4-methyltetrahydro-2H-pyran-4-yl)-1-p-tolyl-1H-pyrazol-5-yl)ureido)naphthalen-1-yloxy)pyridin-2-yl)acetamide] | 3.6 | 143 | −32.6 | −9.0 | 4.4 | 0.9 | 0.6 | 0.2 | – | –
COCC(=O)Nc1cc(Sc2ccc(NC(=O)Nc3cc(C(C)(C)C)nn3-c3ccc(C)cc3)c3ccccc23)ccn1 [Example 21, N-(4-(4-(3-(3-tert-Butyl-1-p-tolyl-1H-pyrazol-5-yl)ureido)naphthalen-1-ylthio)pyridin-2-yl)-2-methoxyacetamide] | 26 | 341 | 2.7 | 5.3 | 6.3 | 2.5 | 30.3 | 6.6 | – | –
COCCOCC(=O)Nc1cc(C(=O)c2ccc(NC(=O)Nc3cc(C(C)(C)C)nn3-c3ccc(C)cc3)c3ccccc23)ccn1 [Example 22, N-(4-(4-(3-(3-(tert-Butyl)-1-(p-tolyl)-1H-pyrazol-5-yl)ureido)-1-naphthoyl)pyridin-2-yl)-2-(2-methoxyethoxy)acetamide] | 14 | 7030 | – | – | 572 | 53.6 | 651 | 3 | 21.1^b % | 80.8^b %
CCNC(=O)Nc1cc(Cc2ccc(NC(=O)Nc3cc(C(C)(C)C)nn3-c3ccc(C)cc3)c3ccccc23)ccn1 [Example 23, 1-(3-(tert-Butyl)-1-(p-tolyl)-1H-pyrazol-5-yl)-3-(4-((2-(3-ethylureido)pyridin-4-yl)methyl)naphthalen-1-yl)urea] | 20.3 | 3010 | – | – | 20.3 | 12.4 | 21.4 | 3.4 | 15.2^b % | −1.7^b %
COCC(=O)Nc1cc(Oc2ccc(NC(=O)Nc3cc(C4CC4)nn3-c3ccc(C)cc3)c3ccccc23)ccn1 [Example 24, N-(4-((4-(3-(3-cyclopropyl-1-p-tolyl-1H-pyrazol-5-yl)ureido)naphthalen-1-yl)oxy)pyridin-2-yl)-2-methoxyacetamide] | 1.5 | 1340 | −10.8 | −7.4 | 110 | 11.8 | 35.6 | 3.3 | – | –
COCC(=O)Nc1cc(Oc2ccc(NC(=O)Nc3cc(C4(C)CCCCC4)nn3-c3ccc(C)cc3)c3ccccc23)ccn1 [Example 26, 2-methoxy-N-(4-(4-(3-(3-(1-methylcyclohexyl)-1-p-tolyl-1H-pyrazol-5-yl)ureido)naphthalen-1-yloxy)pyridin-2-yl)acetamide] | 48.2 | 779 | −27.9 | −33.2 | 4.4 | 3.5 | 1 | 0.4 | – | –
COCC(=O)Nc1cc(Oc2ccc(NC(=O)Nc3cc(C45CC6CC(CC(C6)C4)C5)nn3-c3ccc(C)cc3)c3ccccc23)ccn1 [Example 27, N-(4-(4-(3-(3-(adamantan-1-yl)-1-p-tolyl-1H-pyrazol-5-yl)ureido)naphthalen-1-yloxy)pyridin-2-yl)-2-methoxyacetamide] | 74.3 | 1970 | −4.6 | −23.9 | 284 | 15.2 | 3520 | 18.8 | – | –
COCC(=O)Nc1cc(Oc2ccc(NC(=O)Nc3cc(C4CCOCC4)nn3-c3ccc(C)cc3)c3ccccc23)ccn1 [Example 28, 2-methoxy-N-(4-(4-(3-(3-(tetrahydro-2H-pyran-4-yl)-1-p-tolyl-1H-pyrazol-5-yl)ureido)naphthalen-1-yloxy)pyridin-2-yl)acetamide] | 1.4 | 9300 | −23.7 | −34.5 | 1580 | 41.3 | 62.7 | 7.1 | – | –

Source: patent publication US9024041B2, “P38 MAP kinase inhibitors” (Respivert Ltd., priority 2010, dated 2015)
